From patent US20250382298A1, “NITROGEN-CONTAINING COMPOUND AND USE THEREOF” (SUZHOU GENHOUSE BIO CO., LTD., priority 2022, published 2025)
Like-named read-outs stand apart in the source and are kept apart here.

Tests used:
[1] = test system: HCT-116 cells; experiment: Mitotic index analysis, pH3 expression in HCT-116 cells; type: cell-based; settings: 24 h treatment
Method: (§1) HCT-116 and HT-29 cells at the logarithmic growth phase were taken, digested with a cell lysis buffer (trypsin), centrifuged, counted, and seeded into a 96-well plate at an appropriate cell density (20000 cells/well), with 100 μL per well. The surrounding wells were filled with an appropriate amount of PBS to prevent water evaporation. The next day, the cells were treated with the compounds at different concentrations (with a starting concentration of 10 μM, 3-fold diluted to obtain 9 concentration gradients). After 24 h, the medium was aspirated, and the cells were washed twice with 100 μL of PBS. The cells were then fixed with 4% paraformaldehyde and incubated at room temperature for 15 min. The fixative solution was discarded, and the cells were washed with PBS. Then, 150 μL of specialized blocking solution (containing 1% Triton-100) was added to each well for blocking at room temperature for 2 h, and the plate was washed with PBS to remove excess blocking solution. Anti-phistone H3 (pH3) was diluted at a ratio of 1:1000 with a blocking solution containing 0.033% Triton-100, and a blank control group was set up. Then, incubation was performed at 4° C. overnight. The next day, the plate was washed twice with 1×PBST. Anti-rabbit-IgG (H+L) (CST) and DRAQ5 (Thermofisher) were each diluted at an appropriate ratio with a blocking solution containing 0.033% Triton-100 (secondary antibody: 1:2000; DRAQ5: 1:10000). Then, incubation was performed at room temperature for 2 h. The plate was washed twice with 1×PBST and once with PBS. Fluorescence signals at 700 nm and 800 nm were detected using a Li—COR Odyssey two-color near-infrared laser imager. Calculation was performed as follows: pH3 expression (%)=(Cmpd dose/DMSO control)×100. Cmpd dose is the value of the drug treatment group, and DMSO control is the value of the DMSO control group. The EC50 values were determined by fitting using the GraphPad Prism 7.0 software.

[2] = molecular target: KIF18A (Homo sapiens (Human), UniProt Q8NI77); experiment: KIF18A enzymatic activity inhibition, ADP-Glo kit; type: biochemical; settings: 4 nM KIF18A, 30 μM ATP
Method: In this experiment, an ADP-Glo kit was used to detect the inhibitory activity of the compounds against KIF18A. Each compound was prepared into a 10 mM stock solution with DMSO, which was then diluted at 1:5 to obtain 9 gradients with the initial final concentration set at 10 μM. Meanwhile, a control group and a blank group were also set up. The reaction buffer consisted of 15 mM Tris (pH 7.5), 10 mM MgCl2, and 0.01% Pluronic F-68. 4 nM KIF18A (1467) and the test compound were added to a 384-well plate and incubated at 37° C. for 20 mm. Then, 30 μM ATP was added to initiate the enzymatic reaction, and the plate was incubated at room temperature for 15 min. Finally, the ADP-Glo reagent was added to detect the luminescence intensity, where the luminescence intensity is directly proportional to the ADP content. Inhibition rate (%)=[…]. Sample signal is the value of the compound group, and DMSO signal is the value of the DMSO control group. Then, the inhibition rate at each concentration was calculated, and the IC50 was determined by fitting using the GraphPadPrism 7.0 software.

[3] = test system: HT-29 cells; experiment: Detection of cell proliferation activity by CCK8 method (HT-29); type: cell-based, human; settings: CCK8, 96 h
From the text: (§2) This assay can be used to examine the potency of compounds in inhibiting the proliferation of tumor cells (OVCAR3, HT-29, BT-549, HCT-116). A lower IC50 value indicates high potency of the compound as a KIF18A inhibitor in the following assay setup,
(§3) McCoy's 5A medium purchased from Sangon Biotech; CCK8 kit purchased from Beyotime; OVCAR3, HT-29, HCT-116, and BT-549 cells purchased from Shanghai Fuheng Biotechnology Co., Ltd.; multimode microplate reader (Thermo).
(§4) Cells at the logarithmic growth phase were taken, digested with a cell lysis buffer (trypsin), centrifuged, counted, and seeded into a 96-well plate at an appropriate cell density (BT549: 1500 cells/well in 1640 medium. HT-29 and HCT-116: 2000 cells/well in McCoy's 5A medium), with 180 μL per well, for a total of 60 wells. The surrounding wells were filled with an equal amount of PBS to prevent water evaporation from the edge wells. The next day after cell plating, the test compounds at different concentration gradients (with an initial final concentration of 10 μM, diluted in a 1:5 gradient to obtain 9 concentration gradients) were added to the wells. Three replicate wells were set up for each concentration point, and a corresponding DMSO negative control group was also set up. Detection: After 96 h of drug treatment, the test cell culture plate was removed from the incubator. All the liquid in the 96-well plate was aspirated, and 100 μL of medium containing 10% CCK8 solution was added to each well. The plate was then incubated at 37° C. for 2 h (the OD450 of the DMSO group reached 1.5 or more), and the absorbance at 450 nm was measured using a microplate reader
(§5) After the background value was subtracted from the measurement for each well, the inhibition rate was calculated. Inhibition Rate (%)=(1−Sample/Vehicle)×100. Sample is the luminescence value of the drug treatment group, and Vehicle is the luminescence value of the DMSO control group. A sigmoidal dose-survival rate curve was plotted using a non-linear regression model in the GraphPad Prism 7.0 software, and the IC50 values were calculated.

[4] = test system: OVCAR3 cells; experiment: Detection of OVCAR3 cell proliferation activity by CTG method; type: cell-based; settings: Homo sapiens, OVCAR-3, 168 h, CellTiter-Glo, 7 days
From the text: as §2
1640 medium; fetal bovine serum; penicillin/streptomycin antibiotics purchased from Wisent; CellTiter-Glo (chemiluminescence detection reagent for cell viability) reagent purchased from Promega; OVCAR3 cell line purchased from Nanjing Cobioer Biosciences Co., Ltd.; Nivo multimode microplate reader (PerkinElmer),
OVCAR3 cells were seeded into a white 96-well plate, with 80 μL of cell suspension containing 2000 OVCAR3 cells added to each well. The cell plate was incubated in a CO2 incubator overnight.
A test compound was 5-fold diluted to the 8th concentration (i.e., from 2 mM to […]) using a multichannel pipette, with duplicate wells set up. To an intermediate plate was added 78 μL of medium, and the serially diluted compound was transferred to the corresponding wells of the intermediate plate at 2 μL/well. The mixture was mixed well and then transferred to the cell plate at 20 μL/well. The concentration of the compound transferred to the cell plate ranged from 10 μM to 0.026 nM. The cell plate was incubated in a CO2 incubator for 7 days. Another cell plate was prepared and read for signal values on the day of compound addition, and these values were used as the maximum values (the Max value in the equation below) in data analysis. To this cell plate was added the chemiluminescence detection reagent for cell viability at 25 μL/well, and the luminescence signals were stabilized by incubation at room temperature for 10 min. Readings were taken using the multimode microplate reader.
To the cell plate was added the chemiluminescence detection reagent for cell viability at 25 μL/well, and the luminescence signals were stabilized by incubation at room temperature for 10 mm. Readings were taken using the multimode microplate reader, […]

[5] = test system: BT-549 cells; experiment: Detection of cell proliferation activity by CCK8 method (BT-549); type: cell-based; settings: CCK8, 96 h
From the text: as §2, §3, §4, §5

[6] = test system: HCT-116 cells; experiment: Detection of cell proliferation activity by CCK8 method (HCT-116); type: cell-based; settings: CCK8, 96 h
From the text: as §2, §3, §4, §5

[7] = test system: HT-29 cells; experiment: Mitotic index analysis, pH3 expression in HT-29 cells; type: cell-based, human; settings: Homo sapiens, 24 h treatment
Method: as §1

[8] = test system: OVCAR3 cells; experiment: Detection of cell proliferation activity by CCK8 method (OVCAR3); type: cell-based
From the text: as §2, §3, §4, §5

[9] = Pharmacokinetic test in mice; type: in vivo; settings: BALB/c mice; for AUC / Cmax / half-life: mouse, plasma; for half-life: read-out: t½ (converted)
Method: In this example, the pharmacokinetic behavior of the compounds after intravenous injection (IV) and intragastric (PO) administration in BALB/c mice was tested.
On the day of administration, mice were weighed for actual body weight and the administration volume was calculated. Each compound was tested in two groups with 9 mice in each group; one group was subjected to administration by single intravenous injection, and the other group of mice was subjected to single intragastric administration. Whole blood samples were collected via the orbit at prescribed time points (0.25 h, 0.5 h, 1 h, 2 h, 4 h, 8 h, and 24 h after administration). After blood sample collection, the samples were immediately transferred to labeled commercial sample tubes containing K2-EDTA (0.85-1.15 mg), followed by centrifugation (3200×g, 4° C., 10 min) and plasma collection. The plasma was transferred to a pre-cooled centrifuge tube, frozen in dry ice, and then stored in an ultra-low temperature freezer at −60° C. or lower until the LC-MS/MS analysis.
Plasma concentrations were determined by the LC-MS/MS method. Plasma drug concentration data for the compounds were processed using a non-compartmental model in the WinNonlin Version 6.3 (Pharsight, Mountain View, CA) pharmacokinetic software. The relevant pharmacokinetic parameters were calculated by a linear-log trapezoidal method.

[10] = Homo sapiens, OVCAR-3, CCK8, 96 h

Chain of KIF18A (Q8NI77 1-467): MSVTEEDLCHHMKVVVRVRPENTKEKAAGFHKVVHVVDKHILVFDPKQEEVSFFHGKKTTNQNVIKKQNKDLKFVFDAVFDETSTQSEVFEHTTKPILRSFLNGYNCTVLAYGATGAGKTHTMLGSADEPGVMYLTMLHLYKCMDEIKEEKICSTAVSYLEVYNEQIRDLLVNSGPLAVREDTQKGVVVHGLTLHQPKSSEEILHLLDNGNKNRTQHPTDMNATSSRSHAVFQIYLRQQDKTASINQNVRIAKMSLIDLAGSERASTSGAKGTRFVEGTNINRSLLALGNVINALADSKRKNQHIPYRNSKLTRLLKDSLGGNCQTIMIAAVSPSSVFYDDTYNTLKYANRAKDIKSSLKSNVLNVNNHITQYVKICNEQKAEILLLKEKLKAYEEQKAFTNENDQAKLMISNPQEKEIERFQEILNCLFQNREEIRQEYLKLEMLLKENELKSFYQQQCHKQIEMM

SMILES	EC50 ([1]; Homo sapiens) [nM]	IC50 [2] [nM]	IC50 ([3]; Homo sapiens) [nM]	IC50 ([5]; Homo sapiens) [nM]	IC50 ([6]; Homo sapiens) [nM]	EC50 [7] [nM]	IC50 [8, 10] [nM]	F ([9]; PO @30mpk) [%]	AUC ([9]; 30 mg/kg, PO @30mpk) [µM·h]	Cmax ([9]; 30 mg/kg, PO @30mpk) [µM]	half-life ([9]; 30 mg/kg, PO @30mpk) [h]	also measured
CC1(S(=O)(=O)Nc2ccc(C(=O)Nc3cn4ccnc4c(N4CCC(F)(F)CC4)n3)c(N3CCC4(CC3)CC4)c2)CC1 [Compound 13]	> 10000	187	131	110	> 10000	235						IC50 [4]: 33 nM
Cn1ccc2cc(NC(=O)c3ccc(NS(=O)(=O)CCO)cc3N3CCC4(CC3)CC4)nc(N3CCC(F)(F)CC3)c21 [Compound 18]	> 10000	93.2	336	247	> 10000	87						IC50 [4]: 93 nM
O=C(Nc1cn2ccnc2c(N2CCC(F)(F)CC2)n1)c1cnc(NS(=O)(=O)CCO)cc1N1CCC2(CC1)CC2 [Compound 38]		7.6										EC50 [1]: > 10000 nM; IC50 [3]: 132 nM; IC50 [5]: 31.9 nM; IC50 ([8]; CCK8, 96 h): 11.9 nM; IC50 [6]: > 10000 nM
O=C(Nc1cc2ncccc2c(N2CCC(F)(F)CC2)n1)c1ccc(NS(=O)(=O)CCO)cc1N1CCC2(CC1)CC2 [Compound 40]	> 10000	62.9	177	219	> 10000		68.3					
CS(=O)(=O)Nc1ccc(C(=O)Nc2cn3c(F)cnc3c(N3CCC(F)(F)CC3)n2)c(N2CC3CCC(C3)C2)c1 [Compound 52]	> 10000	22	75.2	209	> 10000	42.9	52.9	107	269	14.1	39	
Cn1ncc2cc(NC(=O)c3ccc(NS(C)(=O)=O)cc3N3CC4CCC(C4)C3)nc(N3CCC(F)(F)CC3)c21 [Compound 56]	> 10000	40.8	25.4	121	> 10000	13.4	16.2	142	436	23.6	80.8	
CS(=O)(=O)Nc1ccc(C(=O)Nc2cn3ncnc3c(N3CCC(F)(F)CC3)n2)c(N2CCC3(CC2)CC3)c1 [Compound 57]	> 10000	27.9	33.8	31.9	> 10000	26.7	14.6	44	154	6.98	146	
CS(=O)(=O)Nc1ccc(C(=O)Nc2cn3cnnc3c(N3CCC(F)(F)CC3)n2)c(N2CC3CCC(C3)C2)c1 [Compound 65]	> 10000	19.2	40.4	53.2	> 10000	20	14.6					F ([9]; PO @5mpk): 82%; AUC ([9]; 5 mg/kg, PO @5mpk): 19.9 µM·h; Cmax ([9]; 5 mg/kg, PO @5mpk): 3.56 µM; half-life ([9]; 5 mg/kg, PO @5mpk): 3.9 h
CS(=O)(=O)Nc1ccc(C(=O)Nc2cc3cn[nH]c3c(N3CCC(F)(F)CC3)n2)c(N2CC3CCC(C3)C2)c1 [Compound 69]	> 10000	26	11.5	39.6	> 10000	4.8	6.5	385	221	20.5	8.2	
CS(=O)(=O)Nc1ccc(C(=O)Nc2cc3nccnc3c(N3CCC(F)(F)CC3)n2)c(N2CCC3(CC2)CC3)c1 [Compound 70]	> 10000	95.9	68.9	91	> 10000	33.6	31.5					
O=C(Nc1cc2nccnc2c(N2CCC(F)(F)CC2)n1)c1ccc(NS(=O)(=O)CCO)cc1N1CC2CCC(C2)C1 [Compound 73]	> 10000	38.4	41.8	77.9	> 10000	24.8	20.2	72	69.1	4.66	3.8	
